In PubChem BioAssay AID2060912 (Molecular Pharmacology Branch, DTP, NCI, 2025):

Tested on: HUVEC/MSC spheroids viability
Test: Human HUVEC/MSC cell line growth inhibition [KRAS2];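 for viability, T/C: percent of DMSO vehicle control luminescence so 100% = untreated viability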
Details: for IC50: curve of first compound; for viability, T/C: stronger effect = lower value
From the text: Multicellular complex tumor spheroid response to RAS pathway inhibitors in combination with a targeted agents in patient-derived cell lines with oncogenic KRAS variants from multiple cancer types
A high-throughput screen of multi-cell type tumor spheroids was designed to identify active combinations of targeted small molecules and KRAS pathway inhibitors. Complex spheroids include a stromal component modeled by human endothelial cells (HUVEC) and fibroblasts modeled by human mesenchymal stem cells (MSCs). The concentration ranges selected for each drug and investigational agent were based upon clinically achievable concentrations if the clinical Cmax of the agent was known. * [This particular assayID is a followup dataset requested by reviewers of the manuscript. It is a test of the HUVEC and MSC without the tumor cells, and was conducted using different drug plates and a different plate layout.]
Compounds. The drugs and investigational agents: BI-3406 (NSC825286), BAY-293 (NSC824723), batoprotafib (TNO155; NSC825523), sotorasib (AMG 510; NSC818433), MRTX1257 (NSC819558), elimusertib (BAY 1895344; NSC800525), molibresib (GSK525762; NSC774829), temuterkib (LY3214996; NSC803410), venetoclax (NSC766270), alisertib (NSC759677), olaparib (NSC753686), talazoparib (NSC767125), erdafitinib (NSC781556), ipatasertib (NSC767898), cabozantinib (NSC761068), nintedanib (NSC756659), abemaciclib (NSC768073), docetaxel (NSC628503), trametinib (NSC758246), and sapanisertib (NSC764658) were obtained from the National Cancer Institute (NCI) Developmental Therapeutics Program Chemical Repository. The FDA-approved anticancer drug set is available from the Developmental Therapeutics Program. […] The stock solutions were prepared in dimethyl sulfoxide (DMSO, Sigma-Aldrich, St. Louis, MO, cat. D2650) at 800-fold the tested concentration and stored at -70 degrees C prior to their use. All drugs and investigational agents were tested over a range starting from a high concentration at or near the clinical Cmax and decreasing in half-log increments. If the clinical Cmax for an agent had not been determined, the highest concentration tested was 10 microM.
Cell Culture. All cells were maintained in an incubator at 37 degrees C and 5% CO2 with 95% humidity. The PDC lines were cultured according to standard operating procedures established by the NCI PDMR (https://pdmr.cancer.gov/sops/default.htm). Briefly, all PDCs were thawed and cultured in Matrigel-coated flasks prepared with a working solution of 1X Ham's F-12 nutrient mix, without supplementation (Invitrogen, Waltham, MA, cat. 11765054), 100 U/mL penicillin-streptomycin (Invitrogen, cat. 15140122), and 2.5% Matrigel (Corning Inc., Corning, NY, cat. 354248) for the first three passages. All PDCs were cultured in complete DMEM/F-12 media containing advanced DMEM/F-12 (Invitrogen, cat. 12634028), 4.9% defined fetal bovine serum, heat inactivated (HyClone Laboratories Inc., Logan, UT, cat. SH30070.03HI), 389 ng/mL hydrocortisone (Sigma-Aldrich, cat. H4001), 9.7 ng/mL human EGF recombinant protein (Invitrogen, cat. PHG0313), 23.4 microg/mL adenine (Sigma-Aldrich, cat. A2786), 97.3 U/mL penicillin-streptomycin (Invitrogen, cat. 15140122), 1.9 mM L-glutamine (Invitrogen, cat. 25030081), and 9.7 microM Y-27632 dihydrochloride (Tocris Bioscience, Bristol, United Kingdom, cat. 1254). The PDCs were cultured in complete DMEM/F12 media without 9.7 microM Y-27632 dihydrochloride for at least two passages prior to the screen. The established cell line HOP-62 was cultured in RPMI 1640 medium, HEPES (Invitrogen, cat. 22400105) with 10% defined fetal bovine serum (HyClone Laboratories Inc., cat. SH30070.03) and 2 mM L-glutamine (Invitrogen, cat. 25030081). The pooled donor HUVEC were cultured in endothelial cell growth medium 2 (PromoCell, Heidelberg, Germany, cat. C-22011) and the hMSC were cultured in mesenchymal stem cell growth medium 2 (PromoCell, cat. C-28009). […]

[1] = second compound 0.0316 µM, first compound 0.0316 µM
[2] = second compound 0.0316 µM, first compound 0.1 µM
[3] = second compound 0.0316 µM, first compound 0.316 µM
[4] = second compound 0.0316 µM, first compound 1 µM
[5] = second compound 0.0316 µM, first compound 3.16 µM
[6] = second compound 0.0316 µM, first compound 10 µM
[7] = second compound 0.1 µM, first compound 0.0316 µM
[8] = second compound 0.1 µM, first compound 0.1 µM
[9] = second compound 0.1 µM, first compound 0.316 µM
[10] = second compound 0.1 µM, first compound 1 µM
[11] = second compound 0.1 µM, first compound 3.16 µM
[12] = second compound 0.1 µM, first compound 10 µM
[13] = second compound 0.316 µM, first compound 0.0316 µM
[14] = second compound 0.316 µM, first compound 0.1 µM
[15] = second compound 0.316 µM, first compound 0.316 µM
[16] = second compound 0.316 µM, first compound 1 µM
[17] = second compound 0.316 µM, first compound 3.16 µM
[18] = second compound 0.316 µM, first compound 10 µM
[19] = second compound 1 µM, first compound 0.0316 µM
[20] = second compound 1 µM, first compound 0.1 µM
[21] = second compound 1 µM, first compound 0.316 µM
[22] = second compound 1 µM, first compound 1 µM
[23] = second compound 1 µM, first compound 3.16 µM
[24] = second compound 1 µM, first compound 10 µM
[25] = second compound 3.16 µM, first compound 0.0316 µM
[26] = second compound 3.16 µM, first compound 0.1 µM
[27] = second compound 3.16 µM, first compound 0.316 µM
[28] = second compound 3.16 µM, first compound 1 µM
[29] = second compound 3.16 µM, first compound 3.16 µM
[30] = second compound 3.16 µM, first compound 10 µM
[31] = second compound 10 µM, first compound 0.0316 µM
[32] = second compound 10 µM, first compound 0.1 µM
[33] = second compound 10 µM, first compound 0.316 µM
[34] = second compound 10 µM, first compound 1 µM
[35] = second compound 10 µM, first compound 3.16 µM
[36] = second compound 10 µM, first compound 10 µM

## COC(=O)c1ccc2c(C(=Nc3ccc(N(C)C(=O)CN4CCN(C)CC4)cc3)c3ccccc3)c(O)[nH]c2c1 + C=CC(=O)N1CCN(c2nc(=O)n(-c3c(C)ccnc3C(C)C)c3nc(-c4c(O)cccc4F)c(F)cc23)C(C)C1
Second compound 0.0316 µM
  IC50: 2.67 µM
Second compound 0.1 µM
  IC50: 2.77 µM
Second compound 0.316 µM
  IC50: 3.64 µM
Second compound 1 µM
  IC50: 3.14 µM
Second compound 3.16 µM
  IC50: 3.92 µM
Second compound 10 µM
  IC50: 2.42 µM
[1]
  viability, T/C: 92.2%
[2]
  viability, T/C: 85.4%
[3]
  viability, T/C: 85.9%
[4]
  viability, T/C: 61.6%
[5]
  viability, T/C: 51.7%
[6]
  viability, T/C: 3.33%
[7]
  viability, T/C: 86.8%
[8]
  viability, T/C: 101%
[9]
  viability, T/C: 99.8%
[10]
  viability, T/C: 66%
[11]
  viability, T/C: 50.3%
[12]
  viability, T/C: 0.39%
[13]
  viability, T/C: 79.2%
[14]
  viability, T/C: 87.9%
[15]
  viability, T/C: 96.2%
[16]
  viability, T/C: 83.4%
[17]
  viability, T/C: 56.5%
[18]
  viability, T/C: 3.54%
[19]
  viability, T/C: 88.4%
[20]
  viability, T/C: 101%
[21]
  viability, T/C: 115%
[22]
  viability, T/C: 75%
[23]
  viability, T/C: 52.5%
[24]
  viability, T/C: 0.39%
[25]
  viability, T/C: 94.3%
[26]
  viability, T/C: 149%
[27]
  viability, T/C: 126%
[28]
  viability, T/C: 80.5%
[29]
  viability, T/C: 67.8%
[30]
  viability, T/C: 0.46%
[31]
  viability, T/C: 90.2%
[32]
  viability, T/C: 102%
[33]
  viability, T/C: 145%
[34]
  viability, T/C: 85.4%
[35]
  viability, T/C: 39.4%
[36]
  viability, T/C: 1.51%

## O=C(c1cc(Cc2n[nH]c(=O)c3ccccc23)ccc1F)N1CCN(C(=O)C2CC2)CC1 + C=CC(=O)N1CCN(c2nc(=O)n(-c3c(C)ccnc3C(C)C)c3nc(-c4c(O)cccc4F)c(F)cc23)C(C)C1
Second compound 0.0316 µM
  IC50: > 10 µM
Second compound 0.1 µM
  IC50: > 10 µM
Second compound 0.316 µM
  IC50: > 10 µM
Second compound 1 µM
  IC50: > 10 µM
Second compound 3.16 µM
  IC50: > 10 µM
Second compound 10 µM
  IC50: > 10 µM
[1]
  viability, T/C: 104%
[2]
  viability, T/C: 109%
[3]
  viability, T/C: 125%
[4]
  viability, T/C: 85.1%
[5]
  viability, T/C: 95%
[6]
  viability, T/C: 104%
[7]
  viability, T/C: 114%
[8]
  viability, T/C: 107%
[9]
  viability, T/C: 95.3%
[10]
  viability, T/C: 107%
[11]
  viability, T/C: 133%
[12]
  viability, T/C: 99.2%
[13]
  viability, T/C: 112%
[14]
  viability, T/C: 122%
[15]
  viability, T/C: 98.2%
[16]
  viability, T/C: 114%
[17]
  viability, T/C: 115%
[18]
  viability, T/C: 105%
[19]
  viability, T/C: 128%
[20]
  viability, T/C: 104%
[21]
  viability, T/C: 124%
[22]
  viability, T/C: 120%
[23]
  viability, T/C: 126%
[24]
  viability, T/C: 118%
[25]
  viability, T/C: 148%
[26]
  viability, T/C: 118%
[27]
  viability, T/C: 146%
[28]
  viability, T/C: 137%
[29]
  viability, T/C: 116%
[30]
  viability, T/C: 125%
[31]
  viability, T/C: 127%
[32]
  viability, T/C: 140%
[33]
  viability, T/C: 145%
[34]
  viability, T/C: 108%
[35]
  viability, T/C: 126%
[36]
  viability, T/C: 120%
